Measured values as given in paper PMC7551932 (Toxins, 2020).
“Also recorded” adds a separate entry of the source. Where a SMILES comes first, the peptide text is derived from it. Bridges are numbered along the chain shown (N, C = ends). Where no end group is shown, it is not given here.

Columns and labels:
[1] = test system: hNaV1.9; format: cell-based, human
[2] = test system: NaV1.7 over NaV1.4; assay: Selectivity of NaV1.7 over NaV1.4; format: cell-based; conditions: Cl6a
[3] = target: T1, NaV1.7 (Homo sapiens, UniProt Q15858); assay: Time course of block and washout of NaV1.7 peak current; conditions: 100 nM toxin, n = 3
[4] = target: T1, NaV1.7; assay: NaV1.7 gating kinetics (I–V, activation, inactivation, repriming); conditions: 10 nM toxin; for Reduction of NaV1.7 channel current: at –5 mV, n = 10
[5] = target: T2, rNaV1.3 (Rattus norvegicus, UniProt P08104); assay: cell-based; format: cell-based
T2 construct: expressed in transfected cells; host or cells: HEK293T

[6] = test system: TTX-R sodium channels (NaV1.5, NaV1.8, and NaV1.9); format: cell-based
[7] = test system: TTX-S sodium channels (NaV1.2–1.4, NaV1.6, and NaV1.7); format: cell-based
[8] = test system: hNaV1.5; format: cell-based, human
[9] = target: T3, hNaV1.7 (Homo sapiens, UniProt Q15858); assay: cell-based; format: cell-based
T3 construct: expressed in transfected cells; host or cells: HEK293T

[10] = test system: rNaV1.8; format: cell-based, rat
[11] = target: T4, rNaV1.4 (Rattus norvegicus, UniProt P15390); assay: cell-based; format: cell-based
T4 construct: expressed in transfected cells; host or cells: HEK293T

[12] = target: T5, rNaV1.2 (Rattus norvegicus, UniProt P04775); assay: cell-based; format: cell-based
T5 construct: expressed in transfected cells; host or cells: HEK293T

[13] = target: T6, mNaV1.6 (Mus musculus, UniProt Q9WTU3); assay: cell-based; format: cell-based
T6 construct: expressed in transfected cells; host or cells: HEK293T

[14] = test system: N-type calcium channels; conditions: cited from earlier work
[15] = test system: TTX-sensitive sodium channel; conditions: cited from earlier work
[16] = test system: NaV1.7; conditions: cited from earlier work

T1 sequence (Q07699 19-218): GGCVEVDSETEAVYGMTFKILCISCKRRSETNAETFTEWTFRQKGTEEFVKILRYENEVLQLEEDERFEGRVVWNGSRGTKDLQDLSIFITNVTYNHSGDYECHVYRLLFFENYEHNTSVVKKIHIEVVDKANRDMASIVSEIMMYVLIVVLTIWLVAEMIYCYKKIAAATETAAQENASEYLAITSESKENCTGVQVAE
T1 sequence (Q15858 other isoform, or with tags, fused parts or gaps): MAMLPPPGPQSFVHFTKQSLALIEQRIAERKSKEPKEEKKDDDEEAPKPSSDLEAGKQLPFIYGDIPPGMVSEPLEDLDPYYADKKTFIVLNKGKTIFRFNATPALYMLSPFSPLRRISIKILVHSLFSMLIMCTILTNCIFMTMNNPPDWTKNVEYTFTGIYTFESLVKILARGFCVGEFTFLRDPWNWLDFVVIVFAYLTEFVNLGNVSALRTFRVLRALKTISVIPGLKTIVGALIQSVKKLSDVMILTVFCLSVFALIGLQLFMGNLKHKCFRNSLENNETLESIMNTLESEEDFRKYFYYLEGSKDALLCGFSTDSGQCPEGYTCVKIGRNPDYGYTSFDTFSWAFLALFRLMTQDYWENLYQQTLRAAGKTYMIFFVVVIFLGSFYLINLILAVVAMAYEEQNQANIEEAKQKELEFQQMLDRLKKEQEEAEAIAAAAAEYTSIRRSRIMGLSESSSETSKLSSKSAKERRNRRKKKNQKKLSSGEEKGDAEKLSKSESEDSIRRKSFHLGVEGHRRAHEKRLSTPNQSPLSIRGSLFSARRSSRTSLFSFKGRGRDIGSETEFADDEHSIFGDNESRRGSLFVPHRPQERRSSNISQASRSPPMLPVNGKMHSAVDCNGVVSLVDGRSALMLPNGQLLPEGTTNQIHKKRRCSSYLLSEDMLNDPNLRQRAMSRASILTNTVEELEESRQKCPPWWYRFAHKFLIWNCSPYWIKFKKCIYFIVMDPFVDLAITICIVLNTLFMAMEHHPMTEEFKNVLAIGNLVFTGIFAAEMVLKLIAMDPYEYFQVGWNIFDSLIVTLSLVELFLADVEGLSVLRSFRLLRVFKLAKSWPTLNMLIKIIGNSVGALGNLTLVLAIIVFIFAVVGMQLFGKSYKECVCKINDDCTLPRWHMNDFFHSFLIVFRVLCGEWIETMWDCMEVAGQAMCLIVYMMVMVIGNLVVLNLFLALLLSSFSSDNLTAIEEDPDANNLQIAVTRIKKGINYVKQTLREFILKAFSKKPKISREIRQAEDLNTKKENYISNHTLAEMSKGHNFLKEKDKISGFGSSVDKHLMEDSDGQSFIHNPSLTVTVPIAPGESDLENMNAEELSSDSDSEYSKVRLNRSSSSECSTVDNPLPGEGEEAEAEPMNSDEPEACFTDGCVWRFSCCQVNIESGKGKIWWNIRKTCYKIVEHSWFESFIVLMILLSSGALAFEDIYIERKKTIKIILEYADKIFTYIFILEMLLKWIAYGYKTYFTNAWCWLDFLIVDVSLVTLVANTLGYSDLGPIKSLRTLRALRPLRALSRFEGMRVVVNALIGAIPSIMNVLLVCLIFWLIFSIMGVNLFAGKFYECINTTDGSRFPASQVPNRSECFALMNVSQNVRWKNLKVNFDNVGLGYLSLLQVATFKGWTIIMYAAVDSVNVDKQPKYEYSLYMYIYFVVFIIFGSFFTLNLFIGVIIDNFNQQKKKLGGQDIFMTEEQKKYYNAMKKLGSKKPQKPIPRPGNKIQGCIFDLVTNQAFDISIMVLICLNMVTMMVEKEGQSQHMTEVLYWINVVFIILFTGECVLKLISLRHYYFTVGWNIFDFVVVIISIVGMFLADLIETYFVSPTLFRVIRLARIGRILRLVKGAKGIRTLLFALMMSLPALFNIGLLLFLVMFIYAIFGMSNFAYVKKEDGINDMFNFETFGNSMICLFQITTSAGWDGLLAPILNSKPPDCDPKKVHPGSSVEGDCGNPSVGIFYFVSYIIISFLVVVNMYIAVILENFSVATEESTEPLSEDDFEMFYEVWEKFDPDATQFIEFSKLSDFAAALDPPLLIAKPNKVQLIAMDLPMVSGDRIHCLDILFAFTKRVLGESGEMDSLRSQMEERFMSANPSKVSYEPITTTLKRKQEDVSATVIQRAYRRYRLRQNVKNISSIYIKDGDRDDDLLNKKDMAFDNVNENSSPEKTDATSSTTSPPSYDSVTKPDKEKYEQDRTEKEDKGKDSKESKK
T1 sequence (O60939 30-215, further chain): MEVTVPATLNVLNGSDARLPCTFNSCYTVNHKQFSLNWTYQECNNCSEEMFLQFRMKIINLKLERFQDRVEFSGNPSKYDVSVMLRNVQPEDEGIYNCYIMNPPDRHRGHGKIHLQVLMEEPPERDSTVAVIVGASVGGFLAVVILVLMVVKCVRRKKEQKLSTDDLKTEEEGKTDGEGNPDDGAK
T6 sequence (Q9WTU3 whole entry): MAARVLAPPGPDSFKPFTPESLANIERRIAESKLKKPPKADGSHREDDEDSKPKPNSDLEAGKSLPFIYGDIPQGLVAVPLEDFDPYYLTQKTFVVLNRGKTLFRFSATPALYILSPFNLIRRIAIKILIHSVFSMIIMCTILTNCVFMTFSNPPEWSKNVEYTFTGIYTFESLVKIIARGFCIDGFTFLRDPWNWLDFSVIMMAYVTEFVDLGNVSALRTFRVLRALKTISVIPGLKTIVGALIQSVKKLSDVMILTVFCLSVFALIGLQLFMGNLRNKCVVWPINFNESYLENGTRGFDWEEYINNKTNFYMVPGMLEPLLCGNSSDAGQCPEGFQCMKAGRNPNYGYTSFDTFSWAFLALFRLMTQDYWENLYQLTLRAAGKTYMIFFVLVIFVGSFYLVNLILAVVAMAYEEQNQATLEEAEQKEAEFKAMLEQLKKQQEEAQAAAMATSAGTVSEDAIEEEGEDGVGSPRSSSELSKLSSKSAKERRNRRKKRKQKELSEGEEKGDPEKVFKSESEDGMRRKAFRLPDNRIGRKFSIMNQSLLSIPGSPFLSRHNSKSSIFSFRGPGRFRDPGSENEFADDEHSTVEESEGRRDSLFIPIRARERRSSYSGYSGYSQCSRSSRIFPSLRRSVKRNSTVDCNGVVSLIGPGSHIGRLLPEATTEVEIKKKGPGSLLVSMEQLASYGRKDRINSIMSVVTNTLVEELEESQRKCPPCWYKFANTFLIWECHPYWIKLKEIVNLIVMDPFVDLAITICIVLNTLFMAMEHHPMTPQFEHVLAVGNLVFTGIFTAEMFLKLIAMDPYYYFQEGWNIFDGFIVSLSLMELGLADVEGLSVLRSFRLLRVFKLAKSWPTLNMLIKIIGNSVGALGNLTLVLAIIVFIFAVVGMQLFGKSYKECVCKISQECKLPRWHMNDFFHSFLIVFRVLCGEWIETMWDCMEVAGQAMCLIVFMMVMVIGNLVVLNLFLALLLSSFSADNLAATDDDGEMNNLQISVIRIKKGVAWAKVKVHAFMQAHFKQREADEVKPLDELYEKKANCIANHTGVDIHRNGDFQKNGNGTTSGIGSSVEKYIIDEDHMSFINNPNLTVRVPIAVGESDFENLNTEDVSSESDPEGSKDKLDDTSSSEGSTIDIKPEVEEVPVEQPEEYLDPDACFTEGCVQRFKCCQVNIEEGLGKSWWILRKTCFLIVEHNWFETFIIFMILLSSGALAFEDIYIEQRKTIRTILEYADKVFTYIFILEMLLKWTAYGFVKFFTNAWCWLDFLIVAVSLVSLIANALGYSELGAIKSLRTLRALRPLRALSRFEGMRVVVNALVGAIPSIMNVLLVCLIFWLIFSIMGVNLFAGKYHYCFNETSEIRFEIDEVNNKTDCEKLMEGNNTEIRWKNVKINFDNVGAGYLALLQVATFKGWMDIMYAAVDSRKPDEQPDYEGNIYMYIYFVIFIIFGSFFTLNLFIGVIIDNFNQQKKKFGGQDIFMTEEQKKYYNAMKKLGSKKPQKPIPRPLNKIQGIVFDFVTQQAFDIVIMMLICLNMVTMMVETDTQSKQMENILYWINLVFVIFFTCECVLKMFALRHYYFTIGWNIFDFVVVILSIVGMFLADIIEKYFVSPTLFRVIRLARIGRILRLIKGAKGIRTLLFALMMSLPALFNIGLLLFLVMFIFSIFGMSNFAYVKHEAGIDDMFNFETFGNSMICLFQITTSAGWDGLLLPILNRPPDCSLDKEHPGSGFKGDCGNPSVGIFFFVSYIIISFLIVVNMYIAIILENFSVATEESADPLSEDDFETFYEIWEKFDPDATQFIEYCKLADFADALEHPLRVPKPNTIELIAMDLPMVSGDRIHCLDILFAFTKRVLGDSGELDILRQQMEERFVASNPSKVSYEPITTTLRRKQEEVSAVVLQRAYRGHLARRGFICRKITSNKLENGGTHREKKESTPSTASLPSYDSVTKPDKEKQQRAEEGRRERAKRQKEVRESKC
T3 sequence (Q15858 other isoform, or with tags, fused parts or gaps): as the sequence (Q15858 other isoform, or with tags, fused parts or gaps) above
T3 sequence (O60939 30-215, further chain): as the sequence (O60939 30-215, further chain) above
T3 sequence (Q07699 19-218, further chain): as the sequence (Q07699 19-218) above

Which “Inhibition of hNaV1.9 current” value [1] does the source give for CC[C@H](C)[C@H](NC(=O)[C@H](CCCCN)NC(=O)[C@H](Cc1c[nH]c2ccccc12)NC(=O)[C@H](CCCCN)NC(=O)[C@@H]1CSSC[C@@H]2NC(=O)[C@H](CCC(=O)O)NC(=O)[C@H](CC(N)=O)NC(=O)[C@H](CCCCN)NC(=O)CNC(=O)[C@@H]3CCCN3C(=O)[C@H]([C@@H](C)O)NC(=O)[C@@H]3CSSC[C@H](NC(=O)[C@H](C(C)C)NC(=O)[C@H](CCCNC(=N)N)NC(=O)[C@H](CC(N)=O)NC(=O)[C@@H]4CCCN4C(=O)[C@H](CSSC[C@H](NC(=O)[C@H](C)N)C(=O)N[C@@H](CCCCN)C(=O)NCC(=O)N[C@@H](C(C)C)C(=O)N[C@@H](Cc4ccccc4)C(=O)N[C@@H](CC(=O)O)C(=O)N4CCC[C@H]4C(=O)N3)NC2=O)C(=O)N[C@@H](CO)C(=O)N[C@@H](CC(=O)O)C(=O)N[C@@H](CCCCN)C(=O)N[C@@H](Cc2c[nH]cn2)C(=O)N[C@@H](CCCCN)C(=O)N[C@@H](Cc2c[nH]c3ccccc23)C(=O)N1)C(=O)O [Cl6a] (H-ACKGVFDPCTPGKNECCPNRVCSDKHKWCKWKI-OH; disulfide 2-17, 9-22, 16-29; N-terminus and C-terminus assumed) here?
The value was “No inhibitory effects”.

What about the “Fold selectivity over NaV1.4” value [2] of the same compound?
The value was ~ 40 fold.

And the “Reversibility of NaV1.7 inhibition on washing” value ([3]; 5 min wash with bath solution)?
The value was “irreversibly inhibit NaV1.7 channel currents; also recorded: irreversible; also recorded: sustained inhibition of NaV1.7 channel currents”.

And the “τon (onset of NaV1.7 peak current inhibition)” value ([3]; mean ± SEM)?
The value was 36.2 ± 5.3 s.

What about the “Voltage dependence of activation, k (toxin)” value ([4]; NaV1.7, mean ± SEM, n = 6–10, control 6.2 ± 0.3 (Cl6a), 6.7 ± 0.4 (Cl6b)) of the same compound?
The value was 7.3 ± 0.4 mV.

And the “Voltage dependence of inactivation, k (toxin)” value ([4]; NaV1.7, mean ± SEM, n = 6–10, control −5.4 ± 0.3 (Cl6a), −5.2 ± 0.3 (Cl6b))?
Its value is −5.7 ± 0.4 mV.

What about the “Voltage dependence of activation, V1/2 (toxin)” value ([4]; NaV1.7, mean ± SEM, n = 6–10, control −19.5 ± 1.5 (Cl6a), −16.3 ± 0.4 (Cl6b)) of the same compound?
Its value is −22.3 ± 1.7 mV.

And the “Voltage dependence of inactivation, V1/2 (toxin)” value ([4]; NaV1.7, mean ± SEM, n = 6–10, control −78.3 ± 1.8 (Cl6a), −70.1 ± 1.5 (Cl6b))?
The value was −81.6 ± 2.4 mV.

What about the “Repriming (toxin)” value ([4]; NaV1.7, recovery at −100 mV, test pulse −10 mV, mean ± SEM, n = 9 (Cl6a), n = 7 (Cl6b), control 14.9 ± 2.4 (Cl6a), 6.3 ± 0.9 (Cl6b)) of the same compound?
Its value is 17.6 ± 2.5 ms.

And the “Reduction of NaV1.7 channel current” value [4]?
Its value is 52.3%.

What about the “Effect on NaV1.7 activation and inactivation (gating)” value ([4]; n = 6–10) of the same compound?
The value was “does not alter channel activation, inactivation, or repriming kinetics; also recorded: cannot significantly change the activation kinetics”.

What about the IC50 [5] of the same compound?
The IC50 was 75.9 ± 6.3 nM.

And the “Inhibition of rNaV1.3 current” value [5]?
Its value is “decreased”.

And the “Inhibition of TTX-R sodium channels” value [6]?
Its value is “not TTX-R (NaV1.5, NaV1.8, and NaV1.9)”.

What about the “Inhibition of TTX-S sodium channels” value [7] of the same compound?
The value was “can inhibit TTX-S, but not TTX-R, sodium channels; also recorded: inhibitors of tetrodotoxin-sensitive (TTX-S), but not TTX-resistant, sodium channels; also recorded: inhibited TTX-S (NaV1.2–1.4, NaV1.6, and NaV1.7)”.

What about the “Inhibition of hNaV1.5 current” value [8] of the same compound?
The value was “No inhibitory effects”.

What about the IC50 [9] of the same compound?
The IC50 was 11 ± 2.5 nM.

What about the “Inhibition of hNaV1.7 current” value [9] of the same compound?
The value was “completely inhibited”.

What about the “Inhibition of rNaV1.8 current” value [10] of the same compound?
Its value is “No inhibitory effects”.

And the IC50 [11]?
Its IC50 is 480 ± 100 nM.

What about the “Inhibition of rNaV1.4 current” value [11] of the same compound?
The value was “decreased”.

What about the IC50 [12] of the same compound?
The IC50 was 56.1 ± 13.6 nM.

What about the “Inhibition of rNaV1.2 current” value [12] of the same compound?
The value was “decreased”.

What about the IC50 [13] of the same compound?
Its IC50 is 9.2 ± 1.3 nM.

And the “Inhibition of mNaV1.6 current” value [13]?
Its value is “completely inhibited”.

With CC[C@H](C)[C@H](NC(=O)[C@H](CCCCN)NC(=O)[C@H](Cc1ccc(O)cc1)NC(=O)[C@H](CCCCN)NC(=O)[C@@H]1CSSC[C@@H]2NC(=O)[C@H](CCC(=O)O)NC(=O)[C@H](CC(=O)O)NC(=O)[C@H](CCCCN)NC(=O)CNC(=O)[C@@H]3CCCN3C(=O)[C@H]([C@@H](C)O)NC(=O)[C@@H]3CSSC[C@H](NC(=O)[C@H](C(C)C)NC(=O)[C@H](Cc4c[nH]cn4)NC(=O)[C@H](CC(N)=O)NC(=O)[C@@H]4CCCN4C(=O)[C@H](CSSC[C@H](NC(=O)[C@H](C)N)C(=O)N[C@@H](CCCCN)C(=O)NCC(=O)N[C@@H]([C@@H](C)CC)C(=O)N[C@@H](Cc4ccccc4)C(=O)N[C@@H](C(C)C)C(=O)N[C@@H]([C@@H](C)O)C(=O)N3)NC2=O)C(=O)N[C@@H](CO)C(=O)N[C@@H](CO)C(=O)N[C@@H](CCCCN)C(=O)N[C@@H](Cc2c[nH]cn2)C(=O)N[C@@H](CCCCN)C(=O)N[C@@H](Cc2c[nH]c3ccccc23)C(=O)N1)C(=O)O [Cl6b] (H-ACKGIFVTCTPGKDECCPNHVCSSKHKWCKYKI-OH; disulfide 2-17, 9-22, 16-29) as the compound, how does the “Reduction of NaV1.7 channel current” value [4] read?
Its value is 49.7%.

Which results are given for “HWTX-I (ACKGVFDACTPGKNECCPNRVCSDKHKWCKWKL; ends and bridges not checked; cysteine pairing not given here; UniProt P56676 49-81, looked up)”?
N-type calcium channel inhibition [14]: inhibitor of N-type calcium channels; TTX-sensitive sodium channel inhibition [15]: inhibitor of N-type calcium channels and a TTX-sensitive sodium channel

Which “Binding site on NaV1.7” value [16] does the source give for HWTX-IV here?
Its value is “site 4 toxins that interact with the DII S3–S4 linker of NaV1.7 channels”.
